Results: patent publication US8093231B2, “Sulfonylethyl phosphorodiamidates” (Telik, Inc., priority 2004, dated 2012)

Assays:
Type in all cases: cell-based, human
[1] = test system: DLD-1 (colorectal adenocarcinoma); assay: Cytotoxicity/growth inhibition assay, DLD-1; details: DLD-1 cells, 4 days culture, CellTiter-Glo, 0.1-200 μM tested; read-out: IC50 (DLD-1)
Summary of the method: (§1)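 Test compounds in DMSO (0.1–200 μM; final DMSO 0.5%) added to freshly diluted cells (3×10^3 cells/mL MX-1 and DLD-1, 6×10^3 cells/mL LNCap), triplicate wells. Cultured ~three doubling times (3 days MX-1, 4 days DLD-1/LNCap). CellTiter-Glo luminescence, 15 min room temperature; growth expressed as % of DMSO solvent control.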

[2] = test system: MX-1 (breast carcinoma); assay: Cytotoxicity/growth inhibition assay, MX-1; details: MX-1 cells, 3 days culture, CellTiter-Glo, 0.1-200 μM tested; read-out: IC50 (MX-1)
Summary of the method: as §1

[3] = test system: LNCap (prostate carcinoma); assay: Cytotoxicity/growth inhibition assay, LNCap; details: LNCap cells, 4 days culture, CellTiter-Glo, 0.1-200 μM tested; read-out: IC50 (LNCap)
Summary of the method: as §1

Compound	IC50 [1]	IC50 [2]	IC50 [3]
O=P(OCCS(=O)(=O)c1ccccc1)(N(CCCl)CCCl)N(CCCl)CCCl [Compound 117A]	4 µM	4.1 µM	16.3 µM
O=C(O)c1ccccc1S(=O)(=O)CCOP(=O)(N(CCCl)CCCl)N(CCCl)CCCl [Compound 118A]	10.9 µM	37.2 µM	≥ 200 µM
O=C(O)c1cccc(S(=O)(=O)CCOP(=O)(N(CCCl)CCCl)N(CCCl)CCCl)c1 [Compound 119A]	9.8 µM	32.5 µM	189 µM
O=P(OCCS(=O)(=O)c1ccncc1)(N(CCCl)CCCl)N(CCCl)CCCl [Compound 120A]	3.6 µM	7.1 µM	12.2 µM
O=P(OCCS(=O)(=O)c1nc2ccccc2s1)(N(CCCl)CCCl)N(CCCl)CCCl [Compound 121A]	1.2 µM	2.6 µM	8.5 µM
Cn1ccnc1S(=O)(=O)CCOP(=O)(N(CCCl)CCCl)N(CCCl)CCCl [Compound 122A]	3.1 µM	4.3 µM	23 µM
Cc1cnc(S(=O)(=O)CCOP(=O)(N(CCCl)CCCl)N(CCCl)CCCl)nc1 [Compound 123A]	5.9 µM	9 µM	25.1 µM
O=P(OCCS(=O)(=O)c1ccccn1)(N(CCCl)CCCl)N(CCCl)CCCl [Compound 124A]	6 µM	7.2 µM	15.5 µM
O=P(OCCS(=O)(=O)c1ncnc2[nH]cnc12)(N(CCCl)CCCl)N(CCCl)CCCl [Compound 125A]	7.8 µM	22.5 µM	45.1 µM
O=C(O)c1ncccc1S(=O)(=O)CCOP(=O)(N(CCCl)CCCl)N(CCCl)CCCl [Compound 126A]	6.7 µM	20.3 µM	126 µM
O=P(OCCS(=O)(=O)c1ncc2nc[nH]c2n1)(N(CCCl)CCCl)N(CCCl)CCCl [Compound 127A]	5.8 µM	15.2 µM	≥ 200 µM
Cc1cccc(CS(=O)(=O)CCOP(=O)(N(CCCl)CCCl)N(CCCl)CCCl)c1 [Compound 129A]	5.4 µM	7.1 µM	16.3 µM
Cc1ccc(CS(=O)(=O)CCOP(=O)(N(CCCl)CCCl)N(CCCl)CCCl)cc1 [Compound 130A]	5.1 µM	6.5 µM	22 µM
O=P(OCCS(=O)(=O)Cc1ccc(Cl)cc1)(N(CCCl)CCCl)N(CCCl)CCCl [Compound 131A]	3.6 µM	5.2 µM	6.9 µM
O=P(OCCS(=O)(=O)Cc1ccc(F)cc1)(N(CCCl)CCCl)N(CCCl)CCCl [Compound 132A]	5 µM	6.1 µM	16.3 µM
O=P(OCCS(=O)(=O)Cc1cccc(C(F)(F)F)c1)(N(CCCl)CCCl)N(CCCl)CCCl [Compound 133A]	2.6 µM	2.7 µM	8.2 µM
O=P(OCCS(=O)(=O)Cc1ccc(Cl)c(Cl)c1)(N(CCCl)CCCl)N(CCCl)CCCl [Compound 134A]	1.2 µM	1.5 µM	4.8 µM
O=P(OCCS(=O)(=O)Cc1ccc(Cl)cc1Cl)(N(CCCl)CCCl)N(CCCl)CCCl [Compound 135A]	0.6 µM	3.5 µM	19.1 µM
O=P(OCCS(=O)(=O)Cc1ccccc1Cl)(N(CCCl)CCCl)N(CCCl)CCCl [Compound 136A]	1.7 µM	2.8 µM	21.4 µM
CC(C)(C)c1ccc(CS(=O)(=O)CCOP(=O)(N(CCCl)CCCl)N(CCCl)CCCl)cc1 [Compound 137A]	0.8 µM	1.7 µM	22.3 µM
O=[N+]([O-])c1cccc(CS(=O)(=O)CCOP(=O)(N(CCCl)CCCl)N(CCCl)CCCl)c1 [Compound 138A]	1.8 µM	16.8 µM	12 µM
O=C(O)c1ccc(CS(=O)(=O)CCOP(=O)(N(CCCl)CCCl)N(CCCl)CCCl)cc1 [Compound 139A]	9.3 µM	25.3 µM	82.1 µM
COC(=O)c1ccc(CS(=O)(=O)CCOP(=O)(N(CCCl)CCCl)N(CCCl)CCCl)cc1 [Compound 140A]	5.9 µM	11.9 µM	23.3 µM
Nc1cccc(CS(=O)(=O)CCOP(=O)(N(CCCl)CCCl)N(CCCl)CCCl)c1 [Compound 141A]	12.9 µM	17.3 µM	45.9 µM
O=C(O)CCC(=O)Nc1cccc(CS(=O)(=O)CCOP(=O)(N(CCCl)CCCl)N(CCCl)CCCl)c1 [Compound 142A]	18.1 µM	22.5 µM	114 µM
NCC(=O)Nc1cccc(CS(=O)(=O)CCOP(=O)(N(CCCl)CCCl)N(CCCl)CCCl)c1 [Compound 143A]	10.9 µM	15.9 µM	110 µM

Compound	IC50 [1]	IC50 [2]	IC50 [3]
CC(C)(C)OC(=O)NCC(=O)Nc1cccc(CS(=O)(=O)CCOP(=O)(N(CCCl)CCCl)N(CCCl)CCCl)c1 [Compound 144A]	4 µM	5.7 µM	17.9 µM
N[C@@H](CCC(=O)Nc1cccc(CS(=O)(=O)CCOP(=O)(N(CCCl)CCCl)N(CCCl)CCCl)c1)C(=O)O [Compound 147A]	11.1 µM	12.2 µM	63.9 µM
N#Cc1ccc(CS(=O)(=O)CCOP(=O)(N(CCCl)CCCl)N(CCCl)CCCl)cc1 [Compound 153A]	1.8 µM	3 µM	6.9 µM
O=C(c1ccc(CS(=O)(=O)CCOP(=O)(N(CCCl)CCCl)N(CCCl)CCCl)cc1)N1CCOCC1 [Compound 154A]	5.8 µM	5.5 µM	26.2 µM
CN(C)C(=O)c1ccc(CS(=O)(=O)CCOP(=O)(N(CCCl)CCCl)N(CCCl)CCCl)cc1 [Compound 155A]	10.7 µM	2.6 µM	42.4 µM
O=C(c1ccc(CS(=O)(=O)CCOP(=O)(N(CCCl)CCCl)N(CCCl)CCCl)cc1)N1CCCC1 [Compound 156A]	3.5 µM	4.8 µM	31.4 µM
CCN(CC)C(=O)c1ccc(CS(=O)(=O)CCOP(=O)(N(CCCl)CCCl)N(CCCl)CCCl)cc1 [Compound 157A]	2.3 µM	3.1 µM	29.6 µM
CN(CCO)C(=O)c1ccc(CS(=O)(=O)CCOP(=O)(N(CCCl)CCCl)N(CCCl)CCCl)cc1 [Compound 158A]	17.5 µM	35.4 µM	85.2 µM
O=C(c1ccc(CS(=O)(=O)CCOP(=O)(N(CCCl)CCCl)N(CCCl)CCCl)cc1)N1CCCCC1 [Compound 159A]	3.5 µM	5.3 µM	24.4 µM
O=C(NCCO)c1ccc(CS(=O)(=O)CCOP(=O)(N(CCCl)CCCl)N(CCCl)CCCl)cc1 [Compound 160A]	13.9 µM	33.2 µM	104 µM
O=C(NCc1ccccc1)c1ccc(CS(=O)(=O)CCOP(=O)(N(CCCl)CCCl)N(CCCl)CCCl)cc1 [Compound 161A]	3.7 µM	7.4 µM	11.7 µM
NC(=O)c1ccc(CS(=O)(=O)CCOP(=O)(N(CCCl)CCCl)N(CCCl)CCCl)cc1 [Compound 162A]	4.7 µM	7.1 µM	55.1 µM
CCNC(=O)c1ccc(CS(=O)(=O)CCOP(=O)(N(CCCl)CCCl)N(CCCl)CCCl)cc1 [Compound 163A]	4.8 µM	4.8 µM	28.5 µM
N#CCNC(=O)c1ccc(CS(=O)(=O)CCOP(=O)(N(CCCl)CCCl)N(CCCl)CCCl)cc1 [Compound 164A]	5.8 µM	10.7 µM	45.9 µM
O=C(c1ccc(CS(=O)(=O)CCOP(=O)(N(CCCl)CCCl)N(CCCl)CCCl)cc1)N1CCC(O)C1 (stereo not drawn) [Compound 165A]	8 µM	21.9 µM	114 µM
O=C(c1ccc(CS(=O)(=O)CCOP(=O)(N(CCCl)CCCl)N(CCCl)CCCl)cc1)N1CCC(O)CC1 [Compound 166A]	6.3 µM	20.5 µM	90.2 µM
CNC(=O)c1ccc(CS(=O)(=O)CCOP(=O)(N(CCCl)CCCl)N(CCCl)CCCl)cc1 [Compound 168A]	5.7 µM	7.9 µM	24.2 µM
O=C(c1ccc(CS(=O)(=O)CCOP(=O)(N(CCCl)CCCl)N(CCCl)CCCl)cc1)N(CCO)CCO [Compound 169A]	7.6 µM	34.5 µM	144 µM
NC(=O)C1CCN(C(=O)c2ccc(CS(=O)(=O)CCOP(=O)(N(CCCl)CCCl)N(CCCl)CCCl)cc2)CC1 [Compound 170A]	10.8 µM	31.4 µM	≥ 200 µM
O=C(NCc1cccnc1)c1ccc(CS(=O)(=O)CCOP(=O)(N(CCCl)CCCl)N(CCCl)CCCl)cc1 [Compound 174A]	14.3 µM	18.8 µM	55.8 µM
O=C(NCCCN1CCOCC1)c1ccc(CS(=O)(=O)CCOP(=O)(N(CCCl)CCCl)N(CCCl)CCCl)cc1 [Compound 175A]	10.9 µM	18.2 µM	65.1 µM
O=C(c1ccc(CS(=O)(=O)CCOP(=O)(N(CCCl)CCCl)N(CCCl)CCCl)cc1)N1CCN(c2ccccn2)CC1 [Compound 176A]	4.9 µM	6.4 µM	29 µM
O=C(c1ccc(CS(=O)(=O)CCOP(=O)(N(CCCl)CCCl)N(CCCl)CCCl)cc1)N1CCN(Cc2ccccc2)CC1 [Compound 177A]	4.5 µM	8.8 µM	21.1 µM
O=P(OCCS(=O)(=O)Cc1ccco1)(N(CCCl)CCCl)N(CCCl)CCCl [Compound 179A]	7.6 µM	7.2 µM	25.6 µM
O=P(OCCS(=O)(=O)Cc1ccccn1)(N(CCCl)CCCl)N(CCCl)CCCl [Compound 181A]	7.4 µM	8.4 µM	26.4 µM
